Laboratory results from patent publication US20250064057A1, “HARMFUL ALGAL BLOOM MITIGATION” (priority 2023, published 2025).

Experiments:
Karenia brevis = experiment: K. brevis cell abundance reduction (% R relative to control) in laboratory beakers/aquaria; type: cell-based; conditions: for mean % R in K. brevis cell abundance: beginning at 4 h
K. brevis = conditions: other studies; cited from earlier work

SMILES	mean % R in K. brevis cell abundance (Karenia brevis; 30 mg/L curcumin) [%]	mean % R in K. brevis cell abundance (Karenia brevis; 40 mg/L curcumin) [%]	reduction in K. brevis (best mitigation results) (Karenia brevis; 20-40 mg/L curcumin, T2-T6)	minimum concentration of curcumin for a reduction in K. brevis (Karenia brevis; laboratory studies) [mg/L]	effect on K. brevis cells (K. brevis)
COc1cc(/C=C/C(=O)CC(=O)/C=C/c2ccc(O)c(OC)c2)ccc1O [curcumin, (1E,6E)-1,7-Bis (4 (hydroxy-3-methoxyphenyl)-1,6-heptadiene-3,5-dione)]	> 90	> 90	60-100%	5	
CCCCOC(=O)c1ccccc1C(=O)OCCCC [dibutyl phthalate]					inhibit cell growth, decrease cell abundance, reduce chlorophyll a, and cause oxidative stress
